# Assay results from paper PMC10850208, “Engineering amino acid residues of pentacyclic triterpene synthases for improving the activity” (Applied Microbiology and Biotechnology, 2024).
# Legend:
# Assay in all cases: product titer in engineered yeast by UHPLC
# Assay type in all cases: cell-based
# [1] = target: T1, OEW (lupeol synthase from Olea europaea) (Olea europaea, UniProt Q9SLW3); conditions: endogenous substrate of S. cerevisiae, not added; 30 °C, 72 h shake flask
# T1 construct: synthesized gene, one copy integrated in the genome of S. cerevisiae SP1, PGK1 promoter; whole-cell production
# T1 sequence (Q9SLW3 1-758): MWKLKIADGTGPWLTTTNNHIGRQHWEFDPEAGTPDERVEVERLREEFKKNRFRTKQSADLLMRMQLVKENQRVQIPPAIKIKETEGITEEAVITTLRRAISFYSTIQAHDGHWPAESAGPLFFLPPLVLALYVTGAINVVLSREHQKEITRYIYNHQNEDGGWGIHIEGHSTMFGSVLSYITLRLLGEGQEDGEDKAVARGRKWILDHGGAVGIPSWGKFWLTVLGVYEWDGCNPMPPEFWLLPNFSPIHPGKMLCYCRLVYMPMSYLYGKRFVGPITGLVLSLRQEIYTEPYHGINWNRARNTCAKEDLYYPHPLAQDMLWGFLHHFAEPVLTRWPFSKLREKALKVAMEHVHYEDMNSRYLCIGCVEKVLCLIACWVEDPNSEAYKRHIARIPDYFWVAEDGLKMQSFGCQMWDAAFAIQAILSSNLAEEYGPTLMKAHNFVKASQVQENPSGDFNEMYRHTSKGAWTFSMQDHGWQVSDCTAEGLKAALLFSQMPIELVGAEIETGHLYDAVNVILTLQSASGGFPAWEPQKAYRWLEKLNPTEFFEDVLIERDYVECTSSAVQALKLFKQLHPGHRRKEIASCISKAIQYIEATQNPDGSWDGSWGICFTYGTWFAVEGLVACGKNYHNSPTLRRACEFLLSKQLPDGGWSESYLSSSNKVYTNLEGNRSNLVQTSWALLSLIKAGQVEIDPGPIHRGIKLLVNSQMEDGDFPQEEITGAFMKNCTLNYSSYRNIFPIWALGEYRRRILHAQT
# [2] = target: T2, GgbAS (β-amyrin synthase from Glycyrrhiza glabra) (Glycyrrhiza glabra, UniProt Q9MB42); conditions: endogenous substrate of S. cerevisiae, not added; 30 °C, 72 h shake flask
# T2 construct: gene bAS1; synthesized gene, one copy integrated in the genome of S. cerevisiae SP1, PGK1 promoter; whole-cell production
# T2 sequence (Q9MB42 whole entry): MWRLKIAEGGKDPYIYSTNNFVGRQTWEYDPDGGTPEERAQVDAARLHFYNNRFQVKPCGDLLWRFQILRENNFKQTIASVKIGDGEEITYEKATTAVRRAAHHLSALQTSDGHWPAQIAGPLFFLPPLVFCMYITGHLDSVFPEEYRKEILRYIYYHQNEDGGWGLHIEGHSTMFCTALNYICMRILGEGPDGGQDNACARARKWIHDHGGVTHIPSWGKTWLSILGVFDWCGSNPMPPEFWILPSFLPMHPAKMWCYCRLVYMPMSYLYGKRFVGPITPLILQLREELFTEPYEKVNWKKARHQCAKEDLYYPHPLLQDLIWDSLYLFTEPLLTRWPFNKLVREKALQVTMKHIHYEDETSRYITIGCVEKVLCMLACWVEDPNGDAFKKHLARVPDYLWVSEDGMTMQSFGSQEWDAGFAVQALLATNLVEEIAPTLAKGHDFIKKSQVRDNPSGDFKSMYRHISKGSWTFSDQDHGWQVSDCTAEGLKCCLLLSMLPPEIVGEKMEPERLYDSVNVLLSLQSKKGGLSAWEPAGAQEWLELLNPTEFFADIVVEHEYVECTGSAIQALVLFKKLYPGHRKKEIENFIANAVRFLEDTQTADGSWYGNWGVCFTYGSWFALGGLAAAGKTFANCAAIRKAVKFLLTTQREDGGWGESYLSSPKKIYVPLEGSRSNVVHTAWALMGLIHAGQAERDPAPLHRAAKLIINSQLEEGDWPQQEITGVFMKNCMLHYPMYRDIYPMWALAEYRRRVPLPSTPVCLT
# [3] = target: T3, MdOSC1 (α-amyrin synthase from Malus × domestica) (Malus domestica, UniProt C7SCX0); conditions: endogenous substrate of S. cerevisiae, not added; 30 °C, 72 h shake flask; mixed product with β-amyrin
# T3 construct: gene OSC1; synthesized gene, one copy integrated in the genome of S. cerevisiae SP1, PGK1 promoter; whole-cell production
# T3 sequence (C7SCX0 entry or part of it): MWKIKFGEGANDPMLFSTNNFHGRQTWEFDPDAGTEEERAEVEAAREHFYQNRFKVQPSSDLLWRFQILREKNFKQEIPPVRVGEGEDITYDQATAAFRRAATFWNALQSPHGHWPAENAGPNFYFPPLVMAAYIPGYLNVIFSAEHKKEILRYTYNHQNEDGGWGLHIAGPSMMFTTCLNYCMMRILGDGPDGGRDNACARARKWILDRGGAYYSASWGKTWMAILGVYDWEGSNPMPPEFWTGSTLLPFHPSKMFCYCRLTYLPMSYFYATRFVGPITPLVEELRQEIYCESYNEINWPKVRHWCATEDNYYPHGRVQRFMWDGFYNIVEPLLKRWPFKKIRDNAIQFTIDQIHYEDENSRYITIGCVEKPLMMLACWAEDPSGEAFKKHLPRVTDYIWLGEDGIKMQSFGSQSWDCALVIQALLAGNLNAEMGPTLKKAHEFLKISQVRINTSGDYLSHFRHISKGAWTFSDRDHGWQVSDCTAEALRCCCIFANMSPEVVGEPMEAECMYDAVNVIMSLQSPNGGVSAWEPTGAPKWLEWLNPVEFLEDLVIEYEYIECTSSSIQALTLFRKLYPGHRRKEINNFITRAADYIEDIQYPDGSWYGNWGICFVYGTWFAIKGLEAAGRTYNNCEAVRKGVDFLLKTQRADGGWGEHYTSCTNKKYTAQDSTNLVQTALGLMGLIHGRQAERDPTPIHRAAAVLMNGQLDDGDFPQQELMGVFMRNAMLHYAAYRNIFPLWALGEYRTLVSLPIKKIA
compound,measurement,setting,value
C=C(C)[C@@H]1CC[C@]2(C)CC[C@]3(C)[C@H](CC[C@@H]4[C@@]5(C)CC[C@H](O)C(C)(C)[C@@H]5CC[C@]43C)[C@@H]12 [lupeol],product titer in engineered yeast by UHPLC,[1],increase in the production of lupeol compared with that of the strain SP1 harboring
CC1(C)CC[C@]2(C)CC[C@]3(C)C(=CC[C@@H]4[C@@]5(C)CC[C@H](O)C(C)(C)[C@@H]5CC[C@]43C)[C@@H]2C1 [β-amyrin],product titer in engineered yeast by UHPLC,[2],higher titer and specific titer of β-amyrin than these of strain SP1 harboring the wild-type GgbAS
C[C@H]1[C@H](C)CC[C@]2(C)CC[C@]3(C)C(=CC[C@@H]4[C@@]5(C)CC[C@H](O)C(C)(C)[C@@H]5CC[C@]43C)[C@H]12 [α-amyrin],product titer in engineered yeast by UHPLC,[3],"increase in the titer of α-amyrin and β-amyrin, compared with these of the strain SP1"
